From US8962633B2, “Methods of treatment and prevention of metabolic bone diseases and disorders” (Thomas Jefferson University, priority 2007, dated 2015)

What was measured:
[1] = tested on: diabetic/hypercholesterolemic pig model (DM/HC); assay: TUNEL assay of trabecular bone in DM/HC pigs; type: in vivo; conditions: treated vs non-treated DM/HC pigs, n=4 per group
Procedure: (§1) Animal model: A diabetic/diabetic hypercholestrolemic pig model (DM/HC) was developed that mimics human-like atherosclerosis. Domestic Yorkshire boars weighing 25-30 kg and aged ˜4 months were castrated and made diabetic with a single intravenous injection of 125 mg/kg of streptozotocin (Sicor Pharmaceuticals, Irvine, Calif.). After stabilized for 1-2 weeks, the animals with elevated levels of plasma glucose (>150 mg/dl) were fed with atherogenic (high-fat) diet as shown in Table 1 (Animal Specialties, Quakertown, Pa.) to achieve a cholesterol level of approximately 250-800 mg/dl.
(§2) At one month after stabilization of choleresterol at 250-800 mg/dl, the animals were randomized into two experimental groups, DM/HC (hyperglycemia and hypercholesterolemia) group with no treatment and treatment group (10 mg/kg/day of SB-480848, also referred to as 1-(N-(2-(diethylamino)ethyl)-N-(4-(4-trifluoromethylphenyl)benzyl)-aminocarbonylmethyl)-2-(4-fluorobenzyl)thio-5,6-trimethylenepyrimidin-4-one). The animals were sacrificed at 6-month after the randomization. The animal protocol has been approved by the Institutional Animal Care and Use Committee of University of Pennsylvania.
Daily dosing began on Day 29, at which time each test animal was given a daily dose of 10 mg/kg SB-480848 (given as bolus equivalent in dog food). […]
TUNEL Assay. Apoptosis was measured by the TUNEL assay. […]

[2] = tested on: diabetic/hypercholesterolemic pig model (DM/HC); assay: Histochemical staining (H&E-AB) of bone marrow in DM/HC pigs; type: in vivo; conditions: treated vs non-treated DM/HC pigs
Procedure: as §1, §2
(§3) Daily dosing began on Day 29, at which time each test animal was given a daily dose of 10 mg/kg SB-480848 (given as bolus equivalent in dog food). Animals were NPO from midnight the night before. […]

[3] = Body weight and general observation of DM/HC pigs during the study; type: in vivo, pig
Procedure: as §1, §2, §3

[4] = tested on: diabetic/hypercholesterolemic pig model (DM/HC); assay: MicroCT analysis of trabecular bone (medial femoral condyle) in the DM/HC pig model; type: in vivo; conditions: for SMI (structural model index) / Tb.Th (trabecular thickness): 10 mg/kg/day
Procedure: Animal model: A diabetic/diabetic hypercholestrolemic pig model (DM/HC) was developed that mimics human-like atherosclerosis. Domestic Yorkshire boars weighing 25-30 kg and aged ˜4 months were castrated and made diabetic with a single intravenous injection of 125 mg/kg of streptozotocin (Sicor Pharmaceuticals, Irvine, Calif.). […] The animals were sacrificed at 6-month after the randomization. The animal protocol has been approved by the Institutional Animal Care and Use Committee of University of Pennsylvania. Daily dosing began on Day 29, at which time each test animal was given a daily dose of 10 mg/kg SB-480848 (given as bolus equivalent in dog food). Animals were NPO from midnight the night before. Animals were euthanized on Day 196 and tissues harvested immediately. Tissue sampling: The right knee joint was removed and dissected. The femoral bone was split in half in parallel to the long axis of the bone. A piece of bone including both the articular surface and growth plate region (˜15-20 mm) was sliced off from the front and parallel to the femoral shaft (FIG. 1). The tissues were fixed in 4% paraformaldehyde and scanned within one week in a μCT scanner (μCT-40, Scanco Corp.) with a voxel resolution of 20 μm. MicroCT Analysis—Micro CT analysis generates 3 dimensional data including bone density and indices of micro-architecture. From the central region, i.e., between the articular surface (top) and the growth plate (bottom), 250 slices (˜[…]) were analyzed. To avoid artifact, the measurements were contoured away from the regions directly below the articular surface and the cutting edges. Paraformaldehyde fixed tissues (2×2 cm) were analyzed using microCT 40 (Scanco Medical, Bassersdorf, Switzerland) and a 3D reconstruction of the images slices was generated. The tissues were scanned at a medium resolution with slice thickness and slice increments of 20 μm. […] Scanning was performed at an energy setting of 70000 (V) and an intensity of 114 (μA) with an integration time of 200 ms. All values for tissue volume (mm3), bone volume (mm3), bone volume/tissue volume, and mean/density (mg HA/ccm) were also calculated and recorded. […] The image density was measured with the Distance3D tool of the μCT Evaluation Program V5.0.

[5] = tested on: MLO-A5 osteoblastic cells; assay: Alkaline phosphatase staining (osteoblast differentiation) of MLO-A5 cells; type: cell-based, mice; conditions: vs control
Procedure: (§4) Alkaline Phosphatase and Alizarin Red Staining. Alizarin Red and Alkaline Phosphatase Staining are bone marker proteins indicating the degree of mineralization and intensity of osteblast differentiation, respectively. MLO-A5 osteoblastic cells (isolated from 14-day-old osteocalcin promoter-driven T-antigen transgenic mice, J Bone Miner Res 12:2014-2023, 1997) were cultured on Collagen1 coated plates at density 15000 cells/well in 12-well TC plates. After 24 hours, the cells were treated w/10 mM β-GP and LysoPC at 5 μM concentration for 3 and 7 days. Treatment was repeated every other day. At each time point alizarin red and alkaline phosphatase staining was performed. Alkaline phosphatase Detection Kit (Chemicon, Intl., Temecula, Calif., SCR004) was used for detection and performed as per manufactures instructions. To visualize mineralization the cells were washed once with a 2% Alizarin Red S solution for 5-10 min. at room temperature followed by one wash with water, two washes with PBS and fixation with paraformaldehyde. The results were then imaged with a digital cooled CCD camera.

[6] = tested on: MLO-A5 osteoblastic cells; assay: Alizarin Red staining (mineralization) of MLO-A5 cells; type: cell-based, mice; conditions: 5 μM LysoPC, 7 days, vs non-treated control cells
Procedure: as §4

MLO-A5 cells = assay: CyQUANT cell proliferation assay in MLO-A5 cells; type: cell-based, mice; conditions: 5 μM LysoPC, 18 hours, vs non-treated cells
Procedure: Cell Proliferation. MLO-A5 cells were plated in 48-well TC dishes at a density of 5,000 cells/well and allowed to attach (5-6 hrs.). The cells were treated with 5 uM of Lyso PC for 18 hrs followed by analysis with the CyQUANT Cell Proliferation Assay Kit (Molecular Probes) following manufacturers instructions to measure MLO-A5 proliferation.

[7] = DM/HC pigs, 10 mg/kg/day SB-480848, sacrificed Day 196
[8] = DM/HC pigs, 10 mg/kg/day SB-480848, sacrificed Day 196, listed as Lp-PLA2 inhibitor

Row | Compound | death of osteocytes and osteoblasts (TUNEL positive cells) [1] | trabecular bone marrow morphology / homeostasis ([2]; H&E-AB staining, trabecular bone areas) | bone marrow remote from trabecular bone [2] | weight ([3]; treated DM/HC pigs at end of study, baseline 26.9 kg, control animals 50.9 kg) [kg] | responsiveness and activity of the animals ([3]; treated vs control DM/HC pigs, observation) | osteoporotic changes (BV/TV, BS/BV) ([4]; DM/HC pigs treated with inhibitor, in words) | BS/BV (bone surface over bone volume) [4, 7] | BV/TV (bone volume over total volume) [4, 7] | Conn-Dens (connectivity density) [4, 7] | Tb.N (trabecular number) [4, 7] | Tb.Sp (trabecular separation) [4, 7] | SMI (structural model index) [4, 7] | Tb.Th (trabecular thickness) [4, 7] | SMI (structural model index) [4, 8] | Tb.Th (trabecular thickness) [4, 8] | changes in Tb.Sp, TbN and ConnD ([4]; control vs DM/HC vs treated DM/HC animals, in words) | alkaline phosphatase staining ([5]; 5 μM LysoPC, 7 day treatment) | alkaline phosphatase staining ([5]; at least 5 μM LysoPC (5 and 20 μM), 7 days) | mineralization (Alizarin Red staining) [6] | proliferation (MLO-A5 cells)
1 | CCN(CC)CCN(Cc1ccc(-c2ccc(C(F)(F)F)cc2)cc1)C(=O)Cn1c(SCc2ccc(F)cc2)nc(=O)c2c1CCC2 [SB480848, 1-(N-(2-(diethylamino)ethyl)-N-(4-(4-trifluoromethylphenyl)benzyl)-aminocarbonylmethyl)-2-(4-fluorobenzyl)thio-5,6-trimethylenepyrimidin-4-one] | reduced death of osteocytes and osteoblasts | preserved bone marrow homeostasis | prevented DM/HC-induced bone marrow abnormalities | 62.5 | more responsive to external stimuli | no osteoporotic changes | 24.40 ± 0.51 | 0.25 ± 0.01 | 35.69 ± 1.22 | 2.78 ± 0.06 | 0.33 ± 0.007 | 0.65 ± 0.10 | 0.10 ± 0.002 | degenerative changes were minimized | reduced Tb.Th thickness was prevented | no significant changes |  |  |  | 
2 | lyso-phosphatidylcholine [LysoPC] |  |  |  |  |  |  |  |  |  |  |  |  |  |  |  |  | decreased alkaline phosphatase staining | reduced alkaline phosphatase staining | decreased mineralization | reduced proliferation
